The record followed here is ChEMBL document CHEMBL3045651, “Nymania-3: a bioactive triterpenoid from Dysoxylum malabaricum” (1999).

Structures are written as SMILES.

What all share (assay type): functional
In test [1] the test system is Olepa ricini. Briefly: Antifeedant activity against Olepa ricini fed on compound pre-treated castor leaves assessed as percent feeding index at 1 ug/cm2 by dual choice leaf disk method.
Test [2] deals with Olepa ricini. Briefly: Antifeedant activity against Olepa ricini fed on compound pre-treated castor leaves assessed as percent feeding index at 10 ug/cm2 by dual choice leaf disk method.
Test [3] concerns Olepa ricini. As to the kind of experiment: Antifeedant activity against Olepa ricini fed on compound pre-treated castor leaves assessed as insect mortality at 0.5 ug/cm2 by dual choice leaf disk method (reference value: 4%). Conditions: foliar.
Test [4] relates to Olepa ricini. As to the kind of experiment: Antifeedant activity against Olepa ricini fed on compound pre-treated castor leaves assessed as duration of development of fourth-instar larvae at 0.5 ug/cm2 by dual choice leaf disk method (reference value: 7.5 +/- 0.2 days).
Test [5] deals with Olepa ricini. Briefly: Antifeedant activity against Olepa ricini fed on compound pre-treated castor leaves assessed as pupal weight at 0.5 ug/cm2 by dual choice leaf disk method (reference value: 476 +/- 10.6 mg).
Test [6] relates to Olepa ricini. Briefly: Antifeedant activity against Olepa ricini fed on compound pre-treated castor leaves assessed as duration of development of pupa at 0.5 ug/cm2 by dual choice leaf disk method (reference value: 7.5 +/- 0.3 days).
Test [7] deals with Olepa ricini. As to the kind of experiment: Antifeedant activity against Olepa ricini fed on compound pre-treated castor leaves assessed as duration of development of third-instar larvae at 0.5 ug/cm2 by dual choice leaf disk method (reference value: 4.5 +/- 0.7 days).
Test [8] has as its system Olepa ricini. Briefly: Antifeedant activity against Olepa ricini fed on compound pre-treated castor leaves assessed as duration of development of fifth-instar larvae at 0.5 ug/cm2 by dual choice leaf disk method (reference value: 4.5 +/- 0.4 days).
In test [9] the test system is Olepa ricini. Briefly: Antifeedant activity against Olepa ricini fed on compound pre-treated castor leaves assessed as percent feeding index at 5 ug/cm2 by dual choice leaf disk method.
Test [10] has as its system Olepa ricini. Briefly: Antifeedant activity against Olepa ricini fed on compound pre-treated castor leaves assessed as percent feeding index at 50 ug/cm2 by dual choice leaf disk method.
The test system of test [11] is Olepa ricini. As to the kind of experiment: Antifeedant activity against Olepa ricini fed on compound pre-treated castor leaves assessed as insect mortality at 1 ug/cm2 by dual choice leaf disk method (reference value: 4%). As to conditions: foliar.
The subject of test [12] is Olepa ricini. Briefly: Antifeedant activity against Olepa ricini fed on compound pre-treated castor leaves assessed as duration of development of fifth-instar larvae at 1 ug/cm2 by dual choice leaf disk method (reference value: 4.5 +/- 0.4 days).
Test [13] concerns Olepa ricini. Briefly: Antifeedant activity against Olepa ricini fed on compound pre-treated castor leaves assessed as duration of development of fourth-instar larvae at 1 ug/cm2 by dual choice leaf disk method (reference value: 7.5 +/- 0.2 days).
Test [14] concerns Olepa ricini. As to the kind of experiment: Antifeedant activity against Olepa ricini fed on compound pre-treated castor leaves assessed as pupal weight at 1 ug/cm2 by dual choice leaf disk method (reference value: 476 +/- 10.6 mg).
Test [15] concerns Olepa ricini. Briefly: Antifeedant activity against Olepa ricini fed on compound pre-treated castor leaves assessed as duration of development of third-instar larvae at 1 ug/cm2 by dual choice leaf disk method (reference value: 4.5 +/- 0.7 days).
Test [16] has as its system Olepa ricini. Briefly: Antifeedant activity against Olepa ricini fed on compound pre-treated castor leaves assessed as duration of development of pupa at 1 ug/cm2 by dual choice leaf disk method (reference value: 7.5 +/- 0.3 days).

Regarding `C/C=C(\C)C(=O)O[C@H]1C[C@@H](OC(C)=O)[C@@]2(C(=O)OC)CO[C@H]3[C@@H](O)[C@@](C)([C@]45O[C@@]4(C)[C@H]4C[C@@H]5O[C@@H]5OC=C[C@@]54O)[C@H]4[C@]1(CO[C@]4(O)C(=O)OC)[C@@H]32` [AZADIRACTIN], the FI in the test on Olepa ricini [1] stood at 20.8%; in the test on Olepa ricini [2], 12.5%; in the test with Olepa ricini [9], 15.6%; in the test with Olepa ricini [10], 10%. Also, in the test with Olepa ricini [3], the mortality (commonly the percentage killed) at 0.5 µg/cm2 is 16%. Besides, the Time in the test with Olepa ricini [4] came out at 8.6 days; in the test on Olepa ricini [6], 7.4 days; with Olepa ricini [7], 7 days; in the test with Olepa ricini [8], 5.7 days. The Activity with Olepa ricini [5] came out at 344 mg.
Take `C=C1[C@@H]([C@@]2(C)C=CC(=O)OC(C)(C)[C@@H]2CC(=O)OC)[C@@H](OC(C)=O)[C@H](OC(C)=O)[C@@]2(C)[C@@H](c3ccoc3)C[C@H]3O[C@]132` [NYMANIA]: the FI is listed as 33.5% in the test with Olepa ricini [1], 23.4% in the test on Olepa ricini [2], 30% with Olepa ricini [9] and 19.5% in the test on Olepa ricini [10]. Also, in the test on Olepa ricini [11], the mortality at 1 µg/cm2 was 16%. Besides, the Time amounted to 5.3 days in the test on Olepa ricini [12], 8.8 days in the test on Olepa ricini [13], 6.8 days in the test on Olepa ricini [15] and 7.4 days with Olepa ricini [16]. Moreover, the Activity in the test with Olepa ricini [14] is listed as 428 mg.
